{
  "source": "patent US7432369B2",
  "about": "“Pyridyl-substituted porphyrin compounds and methods of use thereof” (Inotek Pharmaceuticals Corporation, priority 2004, dated 2008)",
  "key": {"[1]": {"system": "rats subjected to hemorrhagic shock", "test": "Hemorrhagic shock and resuscitation", "type": "in vivo, rat", "conditions": "6 mg/kg i.v., 5 minutes prior to resuscitation", "protocol": "Rats were subjected to 2 hours of hemorrhage, followed by resuscitation as previously described in O. V. Evgenov et al., Crit Care Med., October 2003;31(10):2429-36. Compound 3 was administered at a dose of 6 mg/kg i.v., 5 minutes prior to resuscitation. […] To obtain the results shown in FIG. 7, rats were bled to reach mean BP of 40 mm Hg. This mean BP was maintained for 2 hours, followed by resuscitation with saline at a volume of 2× the shed blood volume. Rats were then observed for 3 hours, and the survival time was recorded. Compound 3 (6 mg/kg) was administered intravenously before the start of resuscitation. To obtain the results shown in FIG. 8, left intraventricular systolic pressure (LVSP), dP/dt, -dP/dt were monitored continuously for 20 minutes from 40 minutes after resuscitation. Compound 3 (6 mg/kg) was administered intravenously before the start of resuscitation. To obtain the results shown in FIG. 9, blood was taken 1 hour after resuscitation. Compound 3 (6 mg/kg) was administered intravenously before the start of resuscitation. To obtain the results shown in FIG. 10, blood was taken at 1 hour after resuscitation. Compound 3 (6 mg/kg) was administered intravenously before the start of resuscitation."}, "[2]": {"system": "mice subjected to streptozocin diabetes", "test": "Multiple low dose streptozocin diabetes", "type": "in vivo", "conditions": "3 or 10 mg/kg/day ip", "from_the_text": "Mice were subjected to multiple low dose streptozocin diabetes as previously described in J. G. Mabley et al., Br J Pharmacol., July 2001;133(6):909-19."}, "[3]": {"system": "mice subjected to heart failure", "test": "Heart failure induced by aortic banding", "type": "in vivo", "conditions": "3 mg/kg/day orally", "protocol": "Mice were subjected to heart failure induced by aortic banding as previously described in C. Y. Xiao et al., J Pharmacol Exp Ther., March 2005;312(3):891-8. Compound 3 was administered at a dose of 3 mg/kg/day orally."}, "[4]": {"system": "rats subjected to heterotopic heart transplantation", "test": "Heterotopic heart transplantation", "type": "in vivo, rat", "conditions": "10 mg/kg/day orally", "protocol": "Rats were subjected to heterotopic heart transplantation as described previously in H. Jiang et al., Transplantation, Jun. 15, 2002;73(11):1808-17. Compound 3 was administered at a dose of 10 mg/kg/day orally."}, "[5]": {"system": "rats subjected to myocardial infarction", "test": "Myocardial infarction by occlusion and reperfusion of the left anterior descending coronary artery", "type": "in vivo, rat", "conditions": "5 minutes prior to reperfusion", "protocol": "Rats were subjected to myocardial infarction by occlusion and reperfusion of the left anterior descending coronary artery as previously described in C. Y. Xiao et al., J Pharmacol Exp Ther., August 2004;310(2):498-504. Compound 3 was administered at doses of 1, 3, or 6 mg/kg i.v., 5 minutes prior to reperfusion."}, "[6]": {"system": "RAW murine macrophages", "test": "Oxidant or free-radical damage, cell viability (mitochondrial respiration)", "type": "cell-based", "conditions": "RAW cells treated with oxidants and free radicals", "protocol": "(§1) The four right-hand most bar graphs represent cytotoxin plus […] of Compound 3.\n(§2) A549 human epithelial cells and RAW murine macrophages were grown and cultured, then treated with oxidants and free radicals in the presence or absence of varying concentrations of Compound 3 according to the method of C. Szabo et al., Mol Med., October 2002;8(10):571-80. […] Protection is by 3-100 μM of Compound 3."}, "[7]": {"system": "A549 human epithelial cells", "test": "Oxidant or free-radical damage, cell viability (mitochondrial respiration)", "type": "cell-based", "conditions": "A549 cells treated with oxidants and free radicals", "protocol": "as §1, §2"}, "[8]": {"system": "rats subjected to balloon-induced vascular injury", "test": "Balloon-induced vascular injury of the carotid artery", "type": "in vivo, rat", "conditions": "1 mg/kg bid", "from_the_text": "Rats were subjected to balloon-induced vascular injury of the carotid artery as previously described in C. Zhang et al., Am J Physiol Heart Circ Physiol., August 2004;287(2):H659-66."}},
  "data": [
    {"smiles": "O=C([O-])c1ccc(C[n+]2ccccc2/C2=C3\\C=CC(=N3)/C(c3cccc[n+]3Cc3ccc(C(=O)[O-])cc3)=c3/cc/c4[n]3[Fe]([Cl])[n]3c2ccc3/C(c2cccc[n+]2Cc2ccc(C(=O)[O-])cc2)=C2/C=CC(=N2)\\C=4c2cccc[n+]2Cc2ccc(C(=O)[O-])cc2)cc1", "note": "[Compound 3]", "values": [
      {"measurement": "blood pressure", "setting": "[1]", "value": "effective for stabilizing blood pressure"},
      {"measurement": "plasma levels of ALT", "setting": "[1]", "value": "reduced"},
      {"measurement": "plasma levels of creatine kinase", "setting": "[1]", "value": "reduced plasma levels of creatine kinase"},
      {"measurement": "survival rate", "setting": "[1]", "value": "increasing survival rate"},
      {"measurement": "development of hyperglycemia", "setting": "[2]", "value": "prevented the development of hyperglycemia"},
      {"measurement": "pancreatic insulin content", "setting": "[2]", "value": "normalized pancreatic insulin content"},
      {"measurement": "degree of myocardial hypertrophy", "setting": "[3]", "value": "reduced the degree of myocardial hypertrophy"},
      {"measurement": "degree of myocardial hypertrophy", "setting": "[4]", "value": "reduced the degree of myocardial hypertrophy"},
      {"measurement": "plasma levels of creatine kinase", "setting": "[5]; 6 mg/kg i.v.", "value": "reduced plasma levels of creatine kinase"},
      {"measurement": "protective effect", "setting": "[5]; 6 mg/kg i.v.", "value": "significant protective effect"},
      {"measurement": "infarct size", "setting": "[5]; 1, 3, or 6 mg/kg i.v.", "value": "effective for reducing infarct size"},
      {"measurement": "concentration giving protection", "setting": "[6]", "value": "3 to 100", "unit": "µM"},
      {"measurement": "protection against the suppression of cell viability", "setting": "[6]", "value": "dose-dependently protected"},
      {"measurement": "concentration giving protection", "setting": "[7]", "value": "3 to 100", "unit": "µM"},
      {"measurement": "protection against the suppression of cell viability", "setting": "[7]", "value": "dose-dependently protected"},
      {"measurement": "degree of intimal hypertrophy", "setting": "[8]", "value": "reduced the degree of intimal hypertrophy"},
      {"measurement": "development of endothelial dysfunction", "setting": "[8]", "value": "prevented the development of endothelial dysfunction"},
      {"measurement": "loss of endothelium-dependent relaxations on the injured side", "setting": "[8]; FIG. 13", "value": "completely prevented this loss of the endothelial function"}
    ]}
  ]
}
